Results: article PMC10244880, “Chromosome-level genome assembly of Salvia miltiorrhiza with orange roots uncovers the role of Sm2OGD3 in catalyzing 15,16-dehydrogenation of tanshinones” (Horticulture Research, 2023)

Molecular target: T1, Sm2OGD3 (Salvia miltiorrhiza, UniProt A0A8K1XH31)
T1 construct: gene TIIAS; full-length ORF (1119 nt, 373 aa printed) in pET-30a, E. coli BL21(DE3), crude extract
Test: UPLC / LC-MS product assay, crude recombinant E. coli extract, initial rates
Assay type: biochemical
Settings: 2-oxoglutarate, ferrous sulfate, L-ascorbate; pH 8.0, 30 °C

T1 sequence (A0A8K1XH31 entry or part of it): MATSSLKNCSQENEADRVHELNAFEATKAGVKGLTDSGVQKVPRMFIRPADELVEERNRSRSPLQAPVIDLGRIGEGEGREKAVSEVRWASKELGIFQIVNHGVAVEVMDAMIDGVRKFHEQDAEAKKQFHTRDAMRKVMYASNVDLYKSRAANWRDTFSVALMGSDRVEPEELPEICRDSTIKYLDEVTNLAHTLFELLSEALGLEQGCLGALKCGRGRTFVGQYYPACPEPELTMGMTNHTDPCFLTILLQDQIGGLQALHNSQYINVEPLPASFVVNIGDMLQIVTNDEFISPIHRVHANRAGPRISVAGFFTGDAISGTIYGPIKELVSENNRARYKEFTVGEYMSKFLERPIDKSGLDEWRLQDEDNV

## CC1=CCCc2c1ccc1c2C(=O)C(=O)C2=C1OCC2C (stereo not shown) [THT, 1,2,15,16-tetrahydrotanshinone I]
  Km: 20.9 µM
